{"source": "patent US9265808B2", "about": "“Compositions for alleviating inflammation and oxidative stress in a mammal” (priority 2004, dated 2016)", "key": {"[1]": {"assay": "Blood pressure of human subjects", "conditions": "Subject #2, ATENOLOL 25 mg/day alone", "experimental": "The approximate daily dosage of each of the components of the herb-containing composition was as follows: B. monnieri extract (200 mg), Milk Thistle extract 70-80% (300 mg), Ashwagandha powder (200 mg), Turmeric extract (95%) (100 mg), Gotu kola powder (200 mg), Aloe vera powder (200 mg), Green tea (98% Polyphenols 45% EGCG) (100 mg), and Ginko biloba leaf extract (200 mg).\nThe approximate daily dosage of each of the components of the herb-containing composition was as follows: B. monnieri extract (134 mg), Milk Thistle extract 70-80% (200 mg), Ashwagandha powder (134 mg), Turmeric extract (95%) (67 mg), Gotu kola powder (134 mg), Aloe vera powder (134 mg), Green tea (98% Polyphenols, 45% EGCG) (67 mg), and Ginko biloba leaf extract (134 mg)."}, "HO-1 [2]": {"tested_on": "HO-1", "assay": "Protandim®-induced HO-1 protein in presence of signaling pathway inhibitors, SK-N-MC cells", "assay_type": "cell-based, human", "conditions": "for decrease of Protandim®-mediated increase in HO-1 expression in presence of inhibitor: 20 μM SB203580 or 1 μM rottlerin 30 min", "method": "To identify the signaling pathway(s) involved in HO-1 promoter induction by Protandim®, different pharmacological inhibitors that specifically block each of the following pathways were used: 5-(2-benzothiazolyl)-3-ethyl-2-[2-(methylphenylamino) ethenyl]-1-phenyl-1H-benzimidazolium iodide (Akt inhibitor IV) for Akt, LY294002 for PI3-kinase, SP600125 for JNK, U0126 for MEK/ERK, SB203580 for p38MAPK, and rottlerin for PKCδ. SK-N-MC cells were preincubated in the presence of 250 nM Akt inhibitor IV, 30 μM LY294002, 1 μM rottlerin, 10 μM U0126, 20 μM SB203580, or 20 μM SP600125 for 30 min followed by exposure to 20 μg/ml Protandim® for 24 h. Cell lysates were electrophoresed and immunoblotted for HO-1. The blots were then reprobed with the antibody for β-actin. […] The intensities of the bands were quantified by densitometry using Fluor-S MultiImager and Quantity One software from Bio-Rad. HO-1 levels were corrected for β-actin expression."}, "HO-1 promoter [3]": {"tested_on": "HO-1 promoter", "assay": "HO-1 promoter luciferase reporter assay in MIN6 cells", "assay_type": "cell-based, mouse", "conditions": "concentration present in the maximum dose of Protandim® (40 μg/ml)", "experimental": "(§1) The induction of HO-1 by Protandim® was tested by transient transfection of its promoter linked to the luciferase reporter gene in MIN6 cells, a mouse insulinoma cell line, and in SK-N-MC cells, a human neuroblastoma cell line, as reported in Velmurugan, K. et al., “Synergistic induction of heme oxygenase-1 by the components of the antioxidant supplement Protandim,” Free Radical Biology & Medicine, 46: 430-440 (2009), the entire disclosure of which is incorporated herein by reference.\n(§2) The alcohol extract of Protandim® was prepared by shaking 675 mg of Protandim with 16.875 ml of 95% ethanol overnight at 4° C. and centrifuging at 5000 rpm (4° C.) for 5 min, and the extract (40 mg/ml) was stored at −80° C. For studies on synergy, the individual components present in 675 mg of Protandim® were extracted in the same volume of alcohol by a similar procedure. Parallel preparations of Protandim® extracts were also prepared with one of the components omitted. […] Controls were treated with the same volume of alcohol used in the treated groups. […]\n(§3) After freezing and thawing, the lysates were centrifuged (10,600 g; 20 min) to collect the supernatant. Firefly luciferase and Renilla luciferase activities from transfected cells were measured using the Dual-Glo Luciferase Assay System (Promega). […]"}, "HO-1 promoter [4]": {"tested_on": "HO-1 promoter", "assay": "HO-1 promoter luciferase reporter assay in SK-N-MC cells", "assay_type": "cell-based, human", "conditions": "concentration present in the maximum dose of Protandim® (20 μg/ml)", "experimental": "as §1, §2, §3"}, "HO-1 [5]": {"tested_on": "HO-1", "assay": "HO-1 protein by Western blot in MIN6 cells", "assay_type": "cell-based, mouse", "conditions": "ethanolic extracts at maximum doses of Table 10 (Protandim® 40 μg/ml)", "quoted_text": "(§4) After treatment with Protandim® extracts, MIN6 and SK-N-MC cells were washed with ice-cold PBS. Cells were lysed with mammalian protein extraction reagent (Pierce, Rockford, Ill., USA) containing phosphatase inhibitors and protease inhibitor cocktail. […] Diluted samples containing equal amounts of protein were mixed with 2× Laemmli sample buffer and subjected to electrophoresis on 12% SDS-polyacrylamide gels. After transfer to polyvinylidene difluoride membranes, the membranes were blocked with TBST [20 mM Tris-HCl (pH 7.9), 8.5% NaCl, and 0.1% Tween 20] containing 5% nonfat dry milk at room temperature for 1 h and exposed to primary antibodies (1:1000) in TBST containing 5.0% BSA at 4° C. overnight. After being washed in blocking solution, the membranes were exposed to secondary antibodies conjugated to alkaline phosphatase and developed with CDP-Star reagent (New England Biolabs, Beverly, Mass., USA). The intensity of the protein bands was visualized using Fluor-S Multi-Imager and Quantity One software from Bio-Rad. […]\n(§5) Cell lysates were processed for Western blot analysis of HO-1, and the blots reprobed for β-actin. The intensities of bands were quantitated by scanning in a MultiImager using Quantity One software (Bio-Rad), and HO-1 expression was corrected for β-actin levels."}, "HO-1 [6]": {"tested_on": "HO-1", "assay": "HO-1 protein by Western blot in SK-N-MC cells", "assay_type": "cell-based, human", "conditions": "ethanolic extracts at maximum doses of Table 10 (Protandim® 20 μg/ml)", "quoted_text": "as §4, §5"}, "[7]": {"conditions": "pH of 1.0; cited from earlier work"}, "Nrf2": {"tested_on": "Nrf2", "assay": "AREc32 bioassay for Nrf2 activation", "text": "The assay for Nrf2 activation is based on the AREc32 cell line, developed by Dr. C. R. Wolf and colleagues of the University of Dundee, Scotland, as described in Wang, X. J. et al., “Generation of a stable antioxidant response element-driven reporter gene cell line and its use to show redoxdependent activation of Nrf2 by cancer chemotherapeutic agents,” Cancer Res. 66, 10983-10994 (2006); Hybertson, B. M. et al., “Oxidative stress in health and disease: the therapeutic potential of Nrf2 activation,” Molecular Aspects of Medicine, 32: 234-246 (2011), the entire disclosure of each of which is incorporated herein by reference. The AREc32 cell line is a stable transfectant derived from the MCF7 human breast cancer cell line. It contains a promoter with eight copies of the rat glutathione-S-transferase-A2 Antioxidant Response Element (ARE) and the SV40 promoter sequence upstream of a firefly luciferase reporter gene.\nBriefly, AREc32 cells were grown in Opti-MEM (GIBCO, Carlsbad, Calif.) supplemented with 4% fetal bovine serum (FBS, GIBCO) and 1% Antibiotic-Antimycotic (GIBCO) at 37° C. and in a 10% CO 2-supplemented air atmosphere. The cells were seeded at 1% to 5% of confluent cell density in T75 tissue culture flasks and cultivated until they approached confluence. The medium was aspirated off and the adherent cells trypsinized with 1 ml of 1× Trypsin-EDTA solution (GIBCO) for 10 min. Ten milliliters of medium was added to the flask and the cells transferred to a 50 ml centrifuge tube and centrifuged at 1000 rpm for 5 min at room temperature. Cells were washed once with 10 ml of medium, then resuspended in 10 ml of medium. Cells were counted using a hemocytometer and diluted to a concentration of 50,000 cells/ml. Four hundred microliters of this cell suspension was seeded into each well of a 24-well plate (i.e. 20,000 cells/well). Seeded plates were then returned to the incubator for 24 h.\nAfter 18-24 h the cells were reattached and growing, and ready for treatment with samples with putative Nrf2 activating activity. […] Vehicles used were aqueous or organic solvents such as ethanol or DMSO, and appropriate vehicle controls were included. The cells were then returned to the incubator for 18 h. All operations up to this point must be conducted under sterile conditions.\nAfter 24 h the cells were checked under the microscope for any abnormalities or detachment. The medium was aspirated and the cells were washed with phosphate buffered saline, pH 7.4 (100 μl/well). Following aspiration of the wash solution, the cells were lysed by application of 0.1 M potassium phosphate buffer, pH 7.8, containing 1% Triton X-100, 2 mM dithiothreitol, 2 mM EDTA, 10% glycerol and 3.5 mM sodium pyrophosphate (100 μl/well). The plate was incubated at 4° C. for 20 min. Lysate (20 μl from each well in a new 12×75 mm glass test tube) was assayed for luciferase activity using a Monolight 3010 autoinject luminometer (Analytical Luminescence Laboratory, Ann Arbor, Mich.), automatically injecting 50 of Luciferase Assay Buffer after background measurement. Luciferase Assay Buffer was prepared by mixing 9 ml of Solution A (15 mM Tricine, pH 7.8, containing 1.5 mM ATP, 7.5 mM MgSO 4, and 5 mM dithiothreitol) with 1 ml of Solution B 10 mM D-luciferin). After a 4 delay following injection, luminescence was measured for 10 s. Relative Light Units (RLU) were recorded for the contents of each well. Fold Induction (FI) of luciferase activity was calculated by dividing the RLU obtained for the test well by the average RLU obtained for control wells (which received no putative Nrf2 activator). Each assay or control was performed in duplicate. Parameters noted were the concentration of test substance providing maximal fold induction of luciferase (Cmax), and the maximal fold induction observed (FImax).\nThe AREc32 cells were prepared as in Example 7. After 18-24 h the cells were reattached and growing, and ready for treatment with samples with putative Nrf2 activating activity. […]"}, "[8]": {"conditions": "SK-N-MC, 250 nM Akt inhibitor IV, 30 μM LY294002, 10 μM U0126, 20 μM SP600125, 30 min, then 20 μg/ml Protandim® 24 h"}, "[9]": {"conditions": "SK-N-MC, then 20 μg/ml Protandim® 24 h"}, "[10]": {"conditions": "AREc32 cells, biphasic induction"}}, "note": "Where two headings read alike, the source gives them in different places."}
{"smiles": "CC(C)NCC(O)COc1ccc(CC(N)=O)cc1", "note": "(stereo not shown) [ATENOLOL]", "values": [{"measurement": "lowest diastolic measurement", "setting": "[1]", "result": 91}]}
{"smiles": "CC[n+]1c(/C=C/N(C)c2ccccc2)n(-c2ccccc2)c2ccc(-c3nc4ccccc4s3)cc21", "note": "[Akt inhibitor IV, 5-(2-benzothiazolyl)-3-ethyl-2-[2-(methylphenylamino)ethenyl]-1-phenyl-1H-benzimidazolium iodide]", "values": [{"measurement": "effect of inhibitor on Protandim®-induced increase in HO-1 protein levels", "setting": "HO-1 [2]; [8]", "result": "significant (p<0.001) decrease"}]}
{"smiles": "COc1cc(/C=C/C(=O)CC(=O)/C=C/c2ccc(O)c(OC)c2)ccc1O", "note": "[Curcumin]", "values": [{"measurement": "HO-1 promoter induction by individual ingredient", "setting": "HO-1 promoter [3]", "result": 36, "unit": "%"}, {"measurement": "HO-1 promoter induction by individual ingredient", "setting": "HO-1 promoter [4]", "result": 300, "unit": "%"}, {"measurement": "increase of HO-1 protein level", "setting": "HO-1 [5]", "result": 6, "unit": "fold"}, {"measurement": "increase of HO-1 protein level", "setting": "HO-1 [6]", "result": 6, "unit": "fold"}]}
{"smiles": "N[C@@H](CCC(=O)N[C@@H](CS)C(=O)NCC(=O)O)C(=O)O", "note": "[GSH, L-γ-glutamyl-L-cysteinyl-glycine]", "values": [{"measurement": "rate constant K2 against the hydroxyl radical", "setting": "[7]", "result": "8.8×10^9"}]}
{"smiles": "CC(=O)N[C@@H](CS)C(=O)O", "note": "[NAC, N-Acetyl Cysteine]", "values": [{"measurement": "rate constant K2 against the hydroxyl radical", "setting": "[7]", "result": "1.36e+10", "unit": "M⁻¹ s⁻¹"}]}
{"smiles": "C[S+]([O-])c1ccc(-c2nc(-c3ccncc3)c(-c3ccc(F)cc3)[nH]2)cc1", "note": "(stereo not shown) [SB203580]", "values": [{"measurement": "decrease of Protandim®-mediated increase in HO-1 expression in presence of inhibitor", "setting": "HO-1 [2]; [9]", "result": 50, "unit": "%"}]}
{"smiles": "Oc1c2ccccc2c2c3c(cccc13)N=N2", "note": "[SP600125]", "values": [{"measurement": "effect of inhibitor on Protandim®-induced increase in HO-1 protein levels", "setting": "HO-1 [2]; [8]", "result": "No significant effect"}]}
{"smiles": "N#CC(=C(/N)Sc1ccccc1N)/C(C#N)=C(\\N)Sc1ccccc1N", "note": "[U0126]", "values": [{"measurement": "effect of inhibitor on Protandim®-induced increase in HO-1 protein levels", "setting": "HO-1 [2]", "result": "No significant effect"}]}
{"smiles": "CC1=C(CO)C(=O)O[C@@H]([C@@H](C)[C@H]2CC[C@H]3[C@@H]4C[C@H]5O[C@]56[C@@H](O)C=CC(=O)[C@]6(C)[C@H]4CC[C@]23C)C1", "note": "[Withaferin A]", "values": [{"measurement": "concentration providing maximal fold induction of luciferase (Cmax)", "setting": "Nrf2; AREc32 cells, 18 h", "result": 2100, "unit": "nM"}, {"measurement": "concentration providing maximal fold induction of luciferase (Cmax)", "setting": "Nrf2; AREc32 cells, 18 h, ethanolic extract", "result": 1000, "unit": "ng/mL"}]}
{"smiles": "COC(=O)[C@]12CCC(C)(C)C[C@H]1[C@H]1C(=O)C=C3[C@@]4(C)C=C(C#N)C(=O)C(C)(C)[C@@H]4CC[C@@]3(C)[C@]1(C)CC2", "note": "[bardoxolone methyl]", "values": [{"measurement": "maximal fold induction observed (FImax)", "setting": "Nrf2", "result": 67, "unit": "fold"}, {"measurement": "lower end of concentration range producing near maximal FI", "setting": "Nrf2; [10]", "result": "less than 40 nM"}, {"measurement": "upper end of concentration range producing near maximal FI", "setting": "Nrf2; [10]", "result": 0.4, "unit": "µM"}]}
{"smiles": "CC(=O)c1c(O)c(C)c(O)c(Cc2c(O)c3c(c(C(=O)/C=C/c4ccccc4)c2O)OC(C)(C)C=C3)c1O", "note": "[rottlerin]", "values": [{"measurement": "decrease of Protandim®-mediated increase in HO-1 expression in presence of inhibitor", "setting": "HO-1 [2]; [9]", "result": 50, "unit": "%"}]}
{"smiles": "C[S+]([O-])CCCCN=C=S", "note": "(stereo not shown) [sulforaphane]", "values": [{"measurement": "maximal fold induction observed (FImax)", "setting": "Nrf2; human, 18 h", "result": 21, "unit": "fold"}]}
{"smiles": "CC(C)(C)c1cc(O)ccc1O", "note": "[tert-butyl-hydroquinone]", "values": [{"measurement": "increase of luciferase activity", "setting": "Nrf2; AREc32 cells, 50 μmol/L", "result": "up to 50 fold"}]}
